From article PMC11396667, “Design, Synthesis, and Anticancer and Antibacterial Activities of Quinoline-5-Sulfonamides” (Molecules, 2024)
≈ marks a conversion by molar mass, not a printed value.

Tests used:
[1] = tested on: Staphylococcus aureus ATCC 29213; test: MBC, agar aliquot subculture method, SA; assay type: cell-based; details: ATCC29213, 99.9% decrease in CFU, 24 h, 37 °C
Excerpt: (§1) The activities of the individual derivatives were expressed as minimum inhibitory concentrations (MICs) and minimum bactericidal concentrations (MBCs) and are shown in Table 3 together with the values of the antibiotics used as standards for comparison. […] MBC values of bactericidal compounds are indicated in bold in Table 3.
(§2) For the above-mentioned strains/isolates, the agar aliquot subculture method was used as a test for bactericidal agents. After the MIC value determination, the inoculum was transferred to CaMH (Oxoid) for staphylococci, and BHI (Oxoid) for enterococci medium using a multipoint inoculator. The plates were incubated in a thermostat at 37 °C for 24 h. The lowest concentration of test compound at which ≤5 colonies were obtained was then evaluated as MBC, corresponding to a 99.9% decrease in CFU relative to the original inoculum.

[2] = tested on: methicillin-resistant S. aureus SA 630; test: MBC, agar aliquot subculture method, MRSA2; assay type: cell-based; details: Staphylococcus aureus; 99.9% decrease in CFU, 24 h, 37 °C
Excerpt: as §1, §2

[3] = tested on: Staphylococcus aureus ATCC 29213; test: MIC, microtitration broth method, SA; assay type: cell-based; details: ATCC29213, 24 h, 37 °C, CaMH broth
Excerpt: (§3) Since there is a general decrease in immunity during the treatment of oncological patients, i.e., patients are more susceptible to infectious diseases, it is advantageous if anticancer agents show antimicrobial properties at the same time. Therefore, the effects of the compounds were also investigated against Gram-positive bacteria. For this purpose, the susceptible collection strains of aerobic Staphylococcus aureus ATCC 29213 and facultatively aerobic Enterococcus faecalis ATCC 29212 and resistant clinical isolates of methicillin-resistant S. aureus (MRSA) SA 3202, SA 630 carrying the mecA gene, and vancomycin-resistant isolates of E. faecalis (VRE) 342B, 368, and 725B carrying the vanA gene were selected. Thus, the selection of the studied bacterial strains was adopted following the CLSI ([…]) international reference methodologies.
(§4) The in vitro antibacterial activity of the synthesized compounds was evaluated against representatives of multidrug-resistant bacteria, […] clinical isolates of methicillin-resistant S. aureus: clinical isolates of human origin, MRSA SA 3202, and MRSA SA 630 (National Institute of Public Health, Prague, Czech Republic), carrying the mecA gene. These two clinical isolates were classified as vancomycin-susceptible (but with a higher MIC of vancomycin equal to 2 μg/mL (VA2-MRSA). Vancomycin- and methicillin-susceptible S. aureus ATCC 29213 and vancomycin-susceptible Enterococcus faecalis ATCC 29212, obtained from the American Type Culture Collection, were used as the reference and quality control strains. Three vanA gene-carrying vancomycin-resistant isolates of E. faecalis (VRE 342B, VRE 368, VRE 725B) (Department of Infectious Diseases and Microbiology, Faculty of Veterinary Medicine, University of Veterinary Sciences Brno, Czech Republic) were provided by Oravcova et al..
(§5) The minimum inhibitory concentrations (MICs) were evaluated by the microtitration broth method according to the CLSI, with some modifications. The compounds were dissolved in DMSO (Sigma, St. Louis, MO, USA) to obtain a concentration of […] and diluted in a microtitration plate in an appropriate medium, i.e., Cation-Adjusted Mueller–Hinton Broth (CaMH, Oxoid, Basingstoke, UK) for staphylococci, and Brain Heart Infusion Broth (BHI, Oxoid) for enterococci to reach the final concentration of 256–0.125 µg/mL. Microtiter plates were inoculated with test microorganisms so that the final concentration of bacterial cells was 10^5. Ampicillin, oxacillin, and ciprofloxacin (Sigma) were used as reference drugs. A drug-free control and a sterility control were included. The plates were incubated for 24 h at 37 °C for staphylococci and enterococci. […] The experiments were repeated three times.

[4] = tested on: methicillin-resistant S. aureus SA 3202; test: MIC, microtitration broth method, MRSA1; assay type: cell-based; details: Staphylococcus aureus; 24 h, 37 °C, CaMH broth
Excerpt: as §3, §4, §5

[5] = tested on: Enterococcus faecalis ATCC 29212; test: MBC, agar aliquot subculture method, EF; assay type: cell-based; details: ATCC29212, 99.9% decrease in CFU, 24 h, 37 °C
Excerpt: as §1, §2

[6] = tested on: Enterococcus faecalis ATCC 29212; test: MIC, microtitration broth method, EF; assay type: cell-based; details: ATCC29212, 24 h, 37 °C, BHI broth
Excerpt: as §3, §4, §5

[7] = tested on: methicillin-resistant S. aureus SA 3202; test: MBC, agar aliquot subculture method, MRSA1; assay type: cell-based; details: Staphylococcus aureus; 99.9% decrease in CFU, 24 h, 37 °C
Excerpt: as §1, §2

S. aureus ATCC 29213 = test: MTT assay of bacterial respiratory activity; assay type: cell-based, Staphylococcus aureus; details: S. aureus ATCC 29213
Excerpt: The MTT assay can be used to assess cell growth by measuring respiration. Bacterial cell respiratory activity (which is ultimately reflected in their viability) of less than 70% after exposure to the MIC values for each test compound is considered as a positive result for this test. This low level of cellular oxidative metabolism indicates inhibition of cell growth by inhibition of respiration. The lowest multiples of the MIC values by which inhibition of S. aureus ATCC 29213 viability [%] greater than 70% was achieved are shown in Table 4. […] Therefore, the antibacterial activity of the discussed compounds cannot be explained solely on the basis of respiration inhibition, so it is very difficult to draw a conclusion regarding the actual mechanism of action, since 8-HQs are multi-target agents, i.e., they affect several different targets at once (as discussed in the section dedicated to anticancer activity), which subsequently leads to the death of the treated resistant microorganisms.
Compounds were prepared as previously stated and diluted in CaMH broth for S. aureus to achieve the desired final concentrations. S. aureus bacterial suspension in sterile distilled water at 0.5 McFarland was diluted 1:3. Inocula were added to each well by multi-inoculator. Diluted mycobacteria in broth free from inhibiting compounds were used as the growth control. All compounds were prepared in duplicate. Plates were incubated at 37 °C for 24 h for S. aureus. After the incubation period, 10% well volume of MTT (3-(4,5-dimethylthiazol-2-yl)-2,5-diphenyltetrazolium bromide) reagent (Sigma) was mixed into each well and incubated at 37 °C 1 h for S. aureus. Then, 100 µL of 17% sodium dodecyl sulphate in 40% dimethylformamide was added to each well. The plates were read at 570 nm. The absorbance readings from the cells grown in the presence of the tested compounds were compared with uninhibited cell growth to determine the relative percent inhibition. The percent inhibition was determined through MTT assay. The percent viability is calculated through the comparison of a measured value and that of the uninhibited control: % viability = OD570E/OD570P × 100, where OD570E is the reading from the compound-exposed cells, while OD570P is the reading from the uninhibited cells (positive control). Cytotoxic potential is determined by a percent viability of <70% [81, 82].

[8] = tested on: methicillin-resistant S. aureus SA 630; test: MIC, microtitration broth method, MRSA2; assay type: cell-based; details: Staphylococcus aureus; 24 h, 37 °C, CaMH broth
Excerpt: as §3, §4, §5

[9] = tested on: methicillin-resistant S. aureus SA 3202; set-up: method as in PMID 25692135; details: isolate classified as vancomycin-susceptible (VA2-MRSA); ref [76]; cited from earlier work
[10] = tested on: methicillin-resistant S. aureus SA 630; set-up: method as in PMID 25692135; details: isolate classified as vancomycin-susceptible (VA2-MRSA); ref [76]; cited from earlier work

| Compound | MBC [1] | MBC [2] | MIC [3] | MIC [4] | MBC [5] | MIC [6] | MBC [7] | Conc.: lowest multiple of MIC with at least 70% inhibition of respiratory activity (S. aureus ATCC 29213) | MIC [8] | MIC of vancomycin, MRSA SA 3202 [9] | MIC of vancomycin, MRSA SA 630 [10] |
| --- | --- | --- | --- | --- | --- | --- | --- | --- | --- | --- | --- |
| CC1(C)S[C@@H]2[C@H](NC(=O)[C@H](N)c3ccccc3)C(=O)N2[C@H]1C(=O)O [AMP, ampicillin, reference compound] | 5.72 µM (≈ 2 µg/mL) | > 45.8 µM | 5.72 µM (≈ 2 µg/mL) | > 45.8 µM | 2.81 µM (≈ 0.982 µg/mL) | 2.81 µM (≈ 0.982 µg/mL) | > 45.8 µM | 16× MIC (>16× MBC) | > 45.8 µM |  |  |
| Cc1onc(-c2ccccc2)c1C(=O)N[C@@H]1C(=O)N2[C@@H]1SC(C)(C)[C@@H]2C(=O)O [OXA, oxacillin, reference compound] | 1.25 µM (≈ 0.502 µg/mL) | 29.7 µM (≈ 11.9 µg/mL) | 1.25 µM (≈ 0.502 µg/mL) | 79.8 µM (≈ 32 µg/mL) |  |  | 79.8 µM (≈ 32 µg/mL) |  | 29.7 µM (≈ 11.9 µg/mL) |  |  |
| CN[C@H](CC(C)C)C(=O)N[C@H]1C(=O)N[C@@H](CC(N)=O)C(=O)N[C@H]2C(=O)N[C@H]3C(=O)N[C@H](C(=O)N[C@H](C(=O)O)c4cc(O)cc(O)c4-c4cc3ccc4O)[C@H](O)c3ccc(c(Cl)c3)Oc3cc2cc(c3O[C@@H]2O[C@H](CO)[C@@H](O)[C@H](O)[C@H]2O[C@H]2C[C@](C)(N)[C@H](O)[C@H](C)O2)Oc2ccc(cc2Cl)[C@H]1O [vancomycin] |  |  |  |  |  |  |  |  |  | 2 µg/mL | 2 µg/mL |
